Where “and” joins values, the source holds several entries; their conditions need not be identical. Identical values can stand only once. Inconclusive results and toxic doses are left out. Rule for the calls: active = survival T/C of 150% or more; inactive = T/C below 125% in these data.
Tested on: P388 leukemia ip, CD2F1 mice, survival T/C
Experiment: NCI In Vivo Anticancer Drug Screen. Data for tumor model P388 Leukemia (intraperitoneal) in CD2F1 (CDF1) mice
Settings: endpoint: median survival time, higher = longer survival
Procedure, shortened: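 Mice carrying the transplanted tumor received test compound or vehicle. Survival was recorded in each group, and the value is the treated-group measurement divided by that of the vehicle-treated control group.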

[1] = dose: 50.0 mg/kg/injection, schedule: Q01DX009 (ip), vehicle: saline with Tween-80
[2] = dose: 100.0 mg/kg/injection, schedule: Q01DX009 (ip), vehicle: saline with Tween-80
[3] = dose: 200.0 mg/kg/injection, schedule: Q01DX009 (ip), vehicle: saline with Tween-80
[4] = dose: 12.5 mg/kg/injection, schedule: Q01DX005 (ip), vehicle: saline
[5] = dose: 25.0 mg/kg/injection, schedule: Q01DX005 (ip), vehicle: saline
[6] = dose: 50.0 mg/kg/injection, schedule: Q01DX005 (ip), vehicle: saline
[7] = dose: 100.0 mg/kg/injection, schedule: Q01DX005 (ip), vehicle: saline
[8] = dose: 60.0 mg/kg/injection, schedule: Q01DX005 (ip), vehicle: saline with Tween-80
[9] = dose: 120.0 mg/kg/injection, schedule: Q01DX005 (ip), vehicle: saline with Tween-80
[10] = dose: 240.0 mg/kg/injection, schedule: Q01DX005 (ip), vehicle: saline with Tween-80
[11] = dose: 100.0 mg/kg/injection, schedule: Q04DX003 (ip), vehicle: saline with Tween-80
[12] = dose: 200.0 mg/kg/injection, schedule: Q04DX003 (ip), vehicle: saline with Tween-80
[13] = dose: 60.0 mg/kg/injection, schedule: Q01DX005 (ip), vehicle: Klucel (hydroxypropylcellulose) (HPC)
[14] = dose: 120.0 mg/kg/injection, schedule: Q01DX005 (ip), vehicle: Klucel (hydroxypropylcellulose) (HPC)
[15] = dose: 100.0 mg/kg/injection, schedule: Q01DX001 (ip), vehicle: Klucel (hydroxypropylcellulose) (HPC)
[16] = dose: 200.0 mg/kg/injection, schedule: Q01DX001 (ip), vehicle: Klucel (hydroxypropylcellulose) (HPC)
[17] = dose: 400.0 mg/kg/injection, schedule: Q01DX001 (ip), vehicle: Klucel (hydroxypropylcellulose) (HPC)
[18] = dose: 240.0 mg/kg/injection, schedule: Q01DX005 (ip), vehicle: Klucel (hydroxypropylcellulose) (HPC)

Measured: T/C

c1cc(C2N3CCCN2CC3)ccn1 (configuration not stated)
inactive: dose: 3.12 mg/kg/injection, schedule: Q01DX009 (ip), vehicle: saline 104 % of control | dose: 12.5 mg/kg/injection, schedule: Q01DX009 (ip), vehicle: saline 103 % of control | dose: 25.0 mg/kg/injection, schedule: Q01DX009 (ip), vehicle: saline 110 % of control

CCC1=CCC2C(=O)c3cc4ccccc4cc3C(=O)C2C1 (configuration not stated)
inactive: dose: 6.25 mg/kg/injection, schedule: Q01DX005 (ip), vehicle: saline with Tween-80 103 % of control | dose: 12.5 mg/kg/injection, schedule: Q01DX005 (ip), vehicle: saline with Tween-80 108 % of control | dose: 25.0 mg/kg/injection, schedule: Q01DX005 (ip), vehicle: saline with Tween-80 108 % of control and 93 % of control

CCCCOc1ccc(NC(=O)Nc2nnc(C)s2)cc1
inactive: [1] 99 % of control | [2] 89 % of control | [3] 86 % of control

CCCCCN(CCNc1cc(OC)cc2cccnc12)C(C)CC (configuration not stated)
inactive: [4] 112 % of control | [5] 103 % of control | [6] 101 % of control and 97 % of control | [7] 100 % of control

Cc1ccc2c(c1)C(O)(CC(=O)c1ccccc1)C(=O)N2 (configuration not stated)
inactive: [1] 99 % of control | [2] 96 % of control | [3] 95 % of control

CCCCOC(=O)N(C)SN(C)C(=O)Oc1cccc(C(C)C)c1
inactive: [1] 121 % of control

CCOc1cc2c(cc1C/C=C/c1ccc(OC)cc1)OCO2
inactive: [8] 103 % of control | [9] 103 % of control | [10] 113 % of control

Cc1cc(C(F)(F)F)nc(NNc2nc(C)cc(C(F)(F)F)n2)n1
inactive: [1] 102 % of control | [2] 88 % of control | [3] 88 % of control

COC(=O)C1(CC(=O)C(C)(C)C)NC(=S)NC(=O)C1C#N (configuration not stated)
inactive: dose: 60.0 mg/kg/injection, schedule: Q01DX005 (ip), vehicle: saline 107 % of control | dose: 120.0 mg/kg/injection, schedule: Q01DX005 (ip), vehicle: saline 101 % of control | dose: 240.0 mg/kg/injection, schedule: Q01DX005 (ip), vehicle: saline 97 % of control

CCCCCCC(=O)/C=C\c1ccccc1
inactive: dose: 25.0 mg/kg/injection, schedule: Q04DX002 (ip), vehicle: saline with Tween-80 95 % of control | dose: 50.0 mg/kg/injection, schedule: Q04DX002 (ip), vehicle: saline with Tween-80 100 % of control | dose: 100.0 mg/kg/injection, schedule: Q04DX002 (ip), vehicle: saline with Tween-80 97 % of control | dose: 200.0 mg/kg/injection, schedule: Q04DX002 (ip), vehicle: saline with Tween-80 106 % of control

CCCCCn1c(Cl)c(/C=N\Nc2cccc([N+](=O)[O-])c2)c2ccccc21
inactive: [11] 100 % of control | [12] 91 % of control | dose: 400.0 mg/kg/injection, schedule: Q04DX003 (ip), vehicle: saline with Tween-80 90 % of control

CC(C)(C)c1cc(C(c2cc3c(cc2O)OCO3)N2CCOCC2)cc(C(C)(C)C)c1O (configuration not stated)
inactive: [8] 102 % of control and 111 % of control and 112 % of control | [9] 105 % of control and 111 % of control and 115 % of control | [10] 104 % of control | dose: 480.0 mg/kg/injection, schedule: Q01DX005 (ip), vehicle: saline with Tween-80 123 % of control

O=C(Cc1nc2ccccc2[nH]1)NNC(=S)Nc1ccc(Cl)cc1
inactive: [13] 88 % of control | [14] 86 % of control

C=C1COC(=O)[C@@]12CC[C@@]1(C)[C@@H](CC[C@@H]3[C@@H]1CC[C@]1(C)C([C@H](C)CCCC(C)C)CC[C@@H]31)C2 (some centres not stated)
inactive: dose: 100.0 mg/kg/injection, schedule: Q01DX001 (ip), vehicle: saline with Tween-80 96 % of control | dose: 200.0 mg/kg/injection, schedule: Q01DX001 (ip), vehicle: saline with Tween-80 93 % of control | dose: 400.0 mg/kg/injection, schedule: Q01DX001 (ip), vehicle: saline with Tween-80 91 % of control

Cc1ccc(N2CCN(CCCC3(c4ccccc4)OCCO3)CC2C)cc1Cl (configuration not stated)
inactive: dose: 50.0 mg/kg/injection, schedule: Q04DX003 (ip), vehicle: saline 106 % of control and 97 % of control | [11] 107 % of control | dose: 100.0 mg/kg/injection, schedule: Q04DX003 (ip), vehicle: saline 100 % of control and 95 % of control | [12] 117 % of control | dose: 200.0 mg/kg/injection, schedule: Q04DX003 (ip), vehicle: saline 107 % of control and 97 % of control | dose: 400.0 mg/kg/injection, schedule: Q04DX003 (ip), vehicle: saline 107 % of control and 97 % of control

O=C(CBr)c1cc2ccccc2[nH]1
inactive: dose: 100.0 mg/kg/injection, schedule: Q01DX001 (ip), vehicle: saline 110 % of control | dose: 200.0 mg/kg/injection, schedule: Q01DX001 (ip), vehicle: saline 106 % of control | dose: 400.0 mg/kg/injection, schedule: Q01DX001 (ip), vehicle: saline 106 % of control

Cc1ccc(S(=O)(=O)C(Cl)(SOCc2ccccc2)Sc2ccccc2)cc1 (configuration not stated)
inactive: dose: 50.0 mg/kg/injection, schedule: Q01DX009 (ip), vehicle: Klucel (hydroxypropylcellulose) (HPC) 109 % of control | dose: 100.0 mg/kg/injection, schedule: Q01DX009 (ip), vehicle: Klucel (hydroxypropylcellulose) (HPC) 100 % of control | dose: 200.0 mg/kg/injection, schedule: Q01DX009 (ip), vehicle: Klucel (hydroxypropylcellulose) (HPC) 114 % of control

FC(F)(F)c1ccccc1NC(=S)SCc1ccco1
inactive: dose: 50.0 mg/kg/injection, schedule: Q01DX009 (ip), vehicle: suspension in saline 93 % of control | dose: 100.0 mg/kg/injection, schedule: Q01DX009 (ip), vehicle: suspension in saline 93 % of control

NC(=S)N/N=C/c1c(Br)nc2n1CCS2
inactive: [15] 99 % of control | [16] 92 % of control | [17] 93 % of control

CCCCC([Se])=NCCC(C)C
inactive: dose: 6.25 mg/kg/injection, schedule: Q01DX009 (ip), vehicle: Klucel (hydroxypropylcellulose) (HPC) 105 % of control | dose: 12.5 mg/kg/injection, schedule: Q01DX009 (ip), vehicle: Klucel (hydroxypropylcellulose) (HPC) 108 % of control | dose: 25.0 mg/kg/injection, schedule: Q01DX009 (ip), vehicle: Klucel (hydroxypropylcellulose) (HPC) 93 % of control

CC(=O)c1cc2c(cc1I)OCO2
inactive: [15] 101 % of control | [16] 99 % of control | [17] 101 % of control

CCCCN(Cc1ccccc1)CC(O)CN=Cc1ccc(C=NCC(O)CN(CCCC)Cc2ccccc2)cc1 (configuration not stated)
inactive: dose: 50.0 mg/kg/injection, schedule: Q01DX005 (ip), vehicle: saline + Tween-80 + alcohol 102 % of control | dose: 100.0 mg/kg/injection, schedule: Q01DX005 (ip), vehicle: saline + Tween-80 + alcohol 107 % of control | dose: 200.0 mg/kg/injection, schedule: Q01DX005 (ip), vehicle: saline + Tween-80 + alcohol 98 % of control

COc1ccc(C2OC(=N)C(=S)N2C)cc1O (configuration not stated)
inactive: [13] 112 % of control | [14] 109 % of control | [18] 112 % of control

CCCCOc1ccc(C(=O)SCCCN=C(N)N)cc1
inactive: [4] 98 % of control | [5] 100 % of control | [6] 96 % of control and 98 % of control and 105 % of control | [7] 97 % of control

COc1ccc2ccccc2c1/C=[N+](/[O-])c1ccccc1
inactive: [13] 109 % of control | [14] 110 % of control | [18] 112 % of control

O=C(O)Cc1ccccc1C(=O)O.[Pb]
inactive: dose: 25.0 mg/kg/injection, schedule: Q01DX009 (ip), vehicle: saline with Tween-80 90 % of control | [1] 104 % of control | [2] 86 % of control

Cc1cc(Cl)c2c(c1N)C(=O)c1ccccc1C2=O
inactive: dose: 50.0 mg/kg/injection, schedule: Q01DX005 (ip), vehicle: Klucel (hydroxypropylcellulose) (HPC) 97 % of control | dose: 100.0 mg/kg/injection, schedule: Q01DX005 (ip), vehicle: Klucel (hydroxypropylcellulose) (HPC) 96 % of control | dose: 200.0 mg/kg/injection, schedule: Q01DX005 (ip), vehicle: Klucel (hydroxypropylcellulose) (HPC) 98 % of control

CCOC(=O)C(C)(C)Oc1cccc2c1S(=O)(=O)c1ccccc1-2
inactive: [1] 95 % of control | [2] 93 % of control | [3] 100 % of control

CCOc1c(Br)cc(/C=C(\C)[N+](=O)[O-])cc1OC
inactive: [8] 112 % of control | [9] 106 % of control

Cc1ccc(Nc2cccc3c2C(=O)c2cccc(Nc4ccc(C)cc4S(=O)(=O)O)c2C3=O)c(S(=O)(=O)O)c1
inactive: [1] 108 % of control | [2] 100 % of control | [3] 101 % of control
